# Test results published in US12479840B2, “HMG-CoA reductase degradation inducing compound” (Uppthera, priority 2020, dated 2025).
# Molecular target: T1, HMG-CoA reductase (Homo sapiens, UniProt P04035)
# T1 construct: endogenous in cells; host or cells: HepG2 (Korea Cell Line Bank)
# T1 sequence (P04035 1-888): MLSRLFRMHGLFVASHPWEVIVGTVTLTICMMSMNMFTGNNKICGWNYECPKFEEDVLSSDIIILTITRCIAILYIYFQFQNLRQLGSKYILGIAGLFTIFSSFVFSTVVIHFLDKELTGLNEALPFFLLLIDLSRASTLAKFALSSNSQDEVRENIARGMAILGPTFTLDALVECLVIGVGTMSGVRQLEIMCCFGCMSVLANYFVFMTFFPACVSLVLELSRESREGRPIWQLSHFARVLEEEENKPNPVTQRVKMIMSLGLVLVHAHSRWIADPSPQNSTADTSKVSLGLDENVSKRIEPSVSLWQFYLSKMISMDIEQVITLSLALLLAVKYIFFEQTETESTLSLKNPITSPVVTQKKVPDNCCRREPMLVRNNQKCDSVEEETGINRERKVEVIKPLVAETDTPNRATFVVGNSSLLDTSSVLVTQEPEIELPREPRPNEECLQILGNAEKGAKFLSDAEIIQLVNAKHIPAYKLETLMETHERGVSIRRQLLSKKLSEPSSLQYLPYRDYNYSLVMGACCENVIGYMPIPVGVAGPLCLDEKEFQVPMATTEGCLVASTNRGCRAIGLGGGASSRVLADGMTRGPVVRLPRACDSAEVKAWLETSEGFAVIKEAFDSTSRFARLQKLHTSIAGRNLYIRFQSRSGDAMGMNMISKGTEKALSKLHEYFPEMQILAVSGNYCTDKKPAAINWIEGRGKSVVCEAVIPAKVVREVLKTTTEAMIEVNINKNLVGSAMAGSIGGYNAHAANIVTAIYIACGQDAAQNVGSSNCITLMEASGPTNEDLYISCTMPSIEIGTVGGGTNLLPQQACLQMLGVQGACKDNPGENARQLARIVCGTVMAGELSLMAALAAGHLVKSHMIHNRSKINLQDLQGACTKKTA
# Assay: HMG-CoA reductase (HMGCR) degradation in HepG2 cells by western blotting
# Assay type: cell-based
# Details: treated for 18 hours, ratio of HMG-CoA reductase to GAPDH, read-out: DC50
# Procedure, shortened: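 Western blot read-out: HMGCR protein probed (1:500, 16 hours at 4° C) alongside GAPDH loading control on 15 μg BCA-normalised RIPA lysates. Lysates came from HepG2 cells (P105–P110) exposed for 18 hours to a 10-point, three-fold series starting at 3 μM.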
row,SMILES,DC50 [nM]
1,"C[C@H]1C=C2C=C[C@H](C)[C@H](CC[C@@H]3C[C@@H](O[Si](c4ccccc4)(c4ccccc4)C(C)(C)C)CC(=O)O3)[C@H]2[C@@H](OC(=O)NCCOCCOCCNc2cccc3c2C(=O)N(C2CCC(=O)NC2=O)C3=O)C1 (stereo partly drawn) [Compound 71, (1S,3R,7S,8S,8aR)-8-(2-((2R,4R)-4-((tert-butyldiphenylsilyl)oxy)-6-oxotetrahydro-2H-pyran-2-yl)ethyl)-3,7-dimethyl-1,2,3,7,8,8a-hexahydronaphthalen-1-yl (2-(2-(2-((2-(2,6-dioxopiperidin-3-yl)-1,3-dioxoisoindolin-4-yl)amino)ethoxy)ethoxy)ethyl)carbamate]",< 50
2,"C[C@H]1C=C2C=C[C@H](C)[C@H](CC[C@@H]3C[C@@H](O[Si](C)(C)C(C)(C)C)CC(=O)O3)[C@H]2[C@@H](OC(=O)NCCCCN2CCC(Nc3cccc4c3C(=O)N(C3CCC(=O)NC3=O)C4=O)CC2)C1 (stereo partly drawn) [Compound 72, (1S,3R,7S,8S,8aR)-8-(2-((2R,4R)-4-((tert-butyldimethylsilyl)oxy)-6-oxotetrahydro-2H-pyran-2-yl)ethyl)-3,7-dimethyl-1,2,3,7,8,8a-hexahydronaphthalen-1-yl (4-(4-((2-(2,6-dioxopiperidin-3-yl)-1,3-dioxoisoindolin-4-yl)amino)piperidin-1-yl)butyl)carbamate]",< 50
3,"C[C@H]1C=C2C=C[C@H](C)[C@H](CC[C@@H]3C[C@@H](O)CC(=O)O3)[C@H]2[C@@H](OC(=O)NCCCCN2CCC(Nc3cccc4c3C(=O)N(C3CCC(=O)NC3=O)C4=O)CC2)C1 (stereo partly drawn) [Compound 73, (1S,3R,7S,8S,8aR)-8-(2-((2R,4R)-4-hydroxy-6-oxotetrahydro-2H-pyran-2-yl)ethyl)-3,7-dimethyl-1,2,3,7,8,8a-hexahydronaphthalen-1-yl (4-(4-((2-(2,6-dioxopiperidin-3-yl)-1,3-dioxoisoindolin-4-yl)amino)piperidin-1-yl)butyl)carbamate]",< 50
4,"C[C@H]1C=C2C=C[C@H](C)[C@H](CC[C@@H]3C[C@@H](O[Si](C)(C)C(C)(C)C)CC(=O)O3)[C@H]2[C@@H](OC(=O)NCCCCCNC(=O)COc2cccc3c2C(=O)N(C2CCC(=O)NC2=O)C3=O)C1 (stereo partly drawn) [Compound 74, (1S,3R,7S,8S,8aR)-8-(2-((2R,4R)-4-((tert-butyldimethylsilyl)oxy)-6-oxotetrahydro-2H-pyran-2-yl)ethyl)-3,7-dimethyl-1,2,3,7,8,8a-hexahydronaphthalen-1-yl (5-(2-((2-(2,6-dioxopiperidin-3-yl)-1,3-dioxoisoindolin-4-yl)oxy)acetamido)pentyl)carbamate]",< 50
5,"C[C@H]1C=C2C=C[C@H](C)[C@H](CC[C@@H]3C[C@@H](O)CC(=O)O3)[C@H]2[C@@H](OC(=O)NCCCCCNC(=O)COc2cccc3c2C(=O)N(C2CCC(=O)NC2=O)C3=O)C1 (stereo partly drawn) [Compound 75, (1S,3R,7S,8S,8aR)-8-(2-((2R,4R)-4-hydroxy-6-oxotetrahydro-2H-pyran-2-yl)ethyl)-3,7-dimethyl-1,2,3,7,8,8a-hexahydronaphthalen-1-yl (5-(2-((2-(2,6-dioxopiperidin-3-yl)-1,3-dioxoisoindolin-4-yl)oxy)acetamido)pentyl)carbamate]",< 50
6,"C[C@H]1C=C2C=C[C@H](C)[C@H](CC[C@@H]3C[C@@H](O[Si](C)(C)C(C)(C)C)CC(=O)O3)[C@H]2[C@@H](OC(=O)NCCCCCCCC(=O)Nc2cccc3c2C(=O)N(C2CCC(=O)NC2=O)C3=O)C1 (stereo partly drawn) [Compound 76, (1S,3R,7S,8S,8aR)-8-(2-((2R,4R)-4-((tert-butyldimethylsilyl)oxy)-6-oxotetrahydro-2H-pyran-2-yl)ethyl)-3,7-dimethyl-1,2,3,7,8,8a-hexahydronaphthalen-1-yl (8-((2-(2,6-dioxopiperidin-3-yl)-1,3-dioxoisoindolin-4-yl)amino)-8-oxooctyl)carbamate]",< 50
7,"C[C@H]1C=C2C=C[C@H](C)[C@H](CC[C@@H]3C[C@@H](O)CC(=O)O3)[C@H]2[C@@H](OC(=O)NCCCCCCCC(=O)Nc2cccc3c2C(=O)N(C2CCC(=O)NC2=O)C3=O)C1 (stereo partly drawn) [Compound 77, (1S,3R,7S,8S,8aR)-8-(2-((2R,4R)-4-hydroxy-6-oxotetrahydro-2H-pyran-2-yl)ethyl)-3,7-dimethyl-1,2,3,7,8,8a-hexahydronaphthalen-1-yl (8-((2-(2,6-dioxopiperidin-3-yl)-1,3-dioxoisoindolin-4-yl)amino)-8-oxooctyl)carbamate]",< 50
8,"C[C@H]1C=C2C=C[C@H](C)[C@H](CC[C@@H]3C[C@@H](O[Si](C)(C)C(C)(C)C)CC(=O)O3)[C@H]2[C@@H](OC(=O)NCc2cccc(CNC(=O)COc3cccc4c3C(=O)N(C3CCC(=O)NC3=O)C4=O)c2)C1 (stereo partly drawn) [Compound 78, (1S,3R,7S,8S,8aR)-8-(2-((2R,4R)-4-((tert-butyldimethylsilyl)oxy)-6-oxotetrahydro-2H-pyran-2-yl)ethyl)-3,7-dimethyl-1,2,3,7,8,8a-hexahydronaphthalen-1-yl (3-((2-((2-(2,6-dioxopiperidin-3-yl)-1,3-dioxoisoindolin-4-yl)oxy)acetamido)methyl)benzyl)carbamate]",< 50
9,"C[C@H]1C=C2C=C[C@H](C)[C@H](CC[C@@H]3C[C@@H](O)CC(=O)O3)[C@H]2[C@@H](OC(=O)NCc2cccc(CNC(=O)COc3cccc4c3C(=O)N(C3CCC(=O)NC3=O)C4=O)c2)C1 (stereo partly drawn) [Compound 79, (1S,3R,7S,8S,8aR)-8-(2-((2R,4R)-4-hydroxy-6-oxotetrahydro-2H-pyran-2-yl)ethyl)-3,7-dimethyl-1,2,3,7,8,8a-hexahydronaphthalen-1-yl (3-((2-((2-(2,6-dioxopiperidin-3-yl)-1,3-dioxoisoindolin-4-yl)oxy)acetamido)methyl)benzyl)carbamate]",< 50
10,"C[C@H]1C=C2C=C[C@H](C)[C@H](CC[C@@H]3C[C@@H](O[Si](C)(C)C(C)(C)C)CC(=O)O3)[C@H]2[C@@H](OC(=O)NCCC2CCN(C(=O)COc3cccc4c3C(=O)N(C3CCC(=O)NC3=O)C4=O)CC2)C1 (stereo partly drawn) [Compound 80, (1S,3R,7S,8S,8aR)-8-(2-((2R,4R)-4-((tert-butyldimethylsilyl)oxy)-6-oxotetrahydro-2H-pyran-2-yl)ethyl)-3,7-dimethyl-1,2,3,7,8,8a-hexahydronaphthalen-1-yl (2-(1-(2-((2-(2,6-dioxopiperidin-3-yl)-1,3-dioxoisoindolin-4-yl)oxy)acetyl)piperidin-4-yl)ethyl)carbamate]",< 50
11,"C[C@H]1C=C2C=C[C@H](C)[C@H](CC[C@@H]3C[C@@H](O)CC(=O)O3)[C@H]2[C@@H](OC(=O)NCCC2CCN(C(=O)COc3cccc4c3C(=O)N(C3CCC(=O)NC3=O)C4=O)CC2)C1 (stereo partly drawn) [Compound 81, (1S,3R,7S,8S,8aR)-8-(2-((2R,4R)-4-hydroxy-6-oxotetrahydro-2H-pyran-2-yl)ethyl)-3,7-dimethyl-1,2,3,7,8,8a-hexahydronaphthalen-1-yl (2-(1-(2-((2-(2,6-dioxopiperidin-3-yl)-1,3-dioxoisoindolin-4-yl)oxy)acetyl)piperidin-4-yl)ethyl)carbamate]",< 50
12,"C[C@H]1C=C2C=C[C@H](C)[C@H](CC[C@@H]3C[C@@H](O[Si](C)(C)C(C)(C)C)CC(=O)O3)[C@H]2[C@@H](OC(=O)N(C)CCOCCOCCNc2cccc3c2C(=O)N(C2CCC(=O)NC2=O)C3=O)C1 (stereo partly drawn) [Compound 82, (1S,3R,7S,8S,8aR)-8-(2-((2R,4R)-4-((tert-butyldimethylsilyl)oxy)-6-oxotetrahydro-2H-pyran-2-yl)ethyl)-3,7-dimethyl-1,2,3,7,8,8a-hexahydronaphthalen-1-yl (2-(2-(2-((2-(2,6-dioxopiperidin-3-yl)-1,3-dioxoisoindolin-4-yl)amino)ethoxy)ethoxy)ethyl)(methyl)carbamate]",< 50
13,"C[C@H]1C=C2C=C[C@H](C)[C@H](CC[C@@H]3C[C@@H](O)CC(=O)O3)[C@H]2[C@@H](OC(=O)N(C)CCOCCOCCNc2cccc3c2C(=O)N(C2CCC(=O)NC2=O)C3=O)C1 (stereo partly drawn) [Compound 83, (1S,3R,7S,8S,8aR)-8-(2-((2R,4R)-4-hydroxy-6-oxotetrahydro-2H-pyran-2-yl)ethyl)-3,7-dimethyl-1,2,3,7,8,8a-hexahydronaphthalen-1-yl (2-(2-(2-((2-(2,6-dioxopiperidin-3-yl)-1,3-dioxoisoindolin-4-yl)amino)ethoxy)ethoxy)ethyl)(methyl)carbamate]",< 50
